“And” between values parts separate entries of the source, which are not always exact repeats. Equal entries are not always repeated.
Columns and labels:
[1] = 101 kPa, Liquid
[2] = xn = mol fraction of the nth substance listed; settings: 101 kPa, Liquid

C[S+](C)[O-] [dimethyl sulfoxide]
[1]
Settings | mass density | viscosity [mPa·s]
303.15 K | 1090.7 kg/m3 | 1.832
308.15 K | 1084.7 kg/m3 | 1.67
313.15 K | 1082.3 kg/m3 | 1.537
318.15 K | 1075.1 kg/m3 | 1.408
323.15 K | 1070.1 kg/m3 and 1070 kg/m3 | 1.289

C[S+](C)[O-] [dimethyl sulfoxide] + CCO
[2]
Settings | mass density, 303.15 K [kg/m3] | mass density, 308.15 K [kg/m3] | mass density, 313.15 K [kg/m3] | mass density, 318.15 K [kg/m3] | mass density, 323.15 K [kg/m3] | viscosity, 303.15 K [mPa·s] | viscosity, 308.15 K [mPa·s] | viscosity, 313.15 K [mPa·s] | viscosity, 318.15 K [mPa·s] | viscosity, 323.15 K [mPa·s]
x1 = 0.1008 | 836 | 831.6 | 827.6 | 822.8 | 818.1 | 1.244 | 1.122 | 1.025 | 0.9261 | 0.8551
x1 = 0.2004 | 870.1 | 865.6 | 861.7 | 856.7 | 852.1 | 1.205 | 1.096 | 0.9964 | 0.9126 | 0.8356
x1 = 0.2994 | 902.4 | 897.7 | 894 | 888.8 | 884 | 1.209 | 1.098 | 1.01 | 0.9262 | 0.8544
x1 = 0.4005 | 933.9 | 929 | 925.6 | 920.1 | 915.3 | 1.237 | 1.143 | 1.038 | 0.961 | 0.8876
x1 = 0.4995 | 963.3 | 958.2 | 955 | 949.2 | 944.4 | 1.282 | 1.179 | 1.086 | 1.004 | 0.9264
x1 = 0.6005 | 991.6 | 986.3 | 983.4 | 977.4 | 972.4 | 1.361 | 1.248 | 1.154 | 1.065 | 0.9847
x1 = 0.7012 | 1018.4 | 1013 | 1010.3 | 1004.1 | 999.3 | 1.464 | 1.34 | 1.234 | 1.139 | 1.05
x1 = 0.8011 | 1043.6 | 1038.3 | 1035.9 | 1029.5 | 1024.7 | 1.557 | 1.435 | 1.323 | 1.217 | 1.125
x1 = 0.8999 | 1067.5 | 1062.1 | 1059.8 | 1053.1 | 1048.4 | 1.658 | 1.517 | 1.393 | 1.289 | 1.183
x1 = 1 | 1090.7 | 1084.7 | 1082.3 | 1075.1 | 1070 | 1.832 | 1.67 | 1.537 | 1.408 | 1.289

C[S+](C)[O-] [dimethyl sulfoxide] + CO
[2]
Settings | mass density, 303.15 K [kg/m3] | mass density, 308.15 K [kg/m3] | mass density, 313.15 K [kg/m3] | mass density, 318.15 K [kg/m3] | mass density, 323.15 K [kg/m3] | viscosity, 303.15 K [mPa·s] | viscosity, 308.15 K [mPa·s] | viscosity, 313.15 K [mPa·s] | viscosity, 318.15 K [mPa·s] | viscosity, 323.15 K [mPa·s]
x1 = 0.0998 | 837.8 | 834.7 | 829.9 | 825.2 | 820.4 | 0.5976 | 0.5587 | 0.5228 | 0.4918 | 0.4582
x1 = 0.2004 | 886 | 882.3 | 877.3 | 872.2 | 867.1 | 0.678 | 0.6322 | 0.591 | 0.5532 | 0.5163
x1 = 0.3007 | 925 | 921 | 916.3 | 910.8 | 905.7 | 0.7684 | 0.7147 | 0.6694 | 0.6281 | 0.5857
x1 = 0.3998 | 959.3 | 955 | 950.7 | 944.7 | 939.6 | 0.8719 | 0.8091 | 0.7576 | 0.7073 | 0.6605
x1 = 0.4996 | 988.4 | 983.6 | 979.6 | 973.3 | 968.4 | 0.9887 | 0.9164 | 0.8549 | 0.7972 | 0.7426
x1 = 0.6008 | 1013.9 | 1009 | 1005.6 | 999.4 | 994.4 | 1.123 | 1.037 | 0.9676 | 0.9008 | 0.8357
x1 = 0.699 | 1035.3 | 1030.1 | 1026.9 | 1020.9 | 1016 | 1.272 | 1.172 | 1.09 | 1.012 | 0.9359
x1 = 0.8011 | 1055.5 | 1050.3 | 1047.7 | 1040.9 | 1036.3 | 1.442 | 1.326 | 1.226 | 1.131 | 1.045
x1 = 0.8997 | 1073.7 | 1068.3 | 1065.8 | 1059 | 1054 | 1.629 | 1.492 | 1.379 | 1.269 | 1.167
x1 = 1 | 1090.7 | 1084.7 | 1082.3 | 1075.1 | 1070.1 | 1.832 | 1.67 | 1.537 | 1.408 | 1.289

CCO [ethanol] + C[S+](C)[O-]
[2], x2 = 0
Settings | mass density [kg/m3] | viscosity [mPa·s]
303.15 K | 783.4 | 1.086
308.15 K | 779 | 0.9732
313.15 K | 774.6 | 0.8596
318.15 K | 769.8 | 0.8284
323.15 K | 766.1 | 0.7493

CO [methanol] + C[S+](C)[O-]
[2], x2 = 0
Settings | mass density [kg/m3] | viscosity [mPa·s]
303.15 K | 781.3 | 0.5178
308.15 K | 778.2 | 0.4843
313.15 K | 772.4 | 0.4515
318.15 K | 767.8 | 0.4233
323.15 K | 762.7 | 0.395

CCCO [propan-1-ol] + C[S+](C)[O-]
[2], x2 = 0
Settings | mass density [kg/m3] | viscosity [mPa·s]
303.15 K | 795.5 | 1.733
308.15 K | 791.1 | 1.534
313.15 K | 787 | 1.367
318.15 K | 783.3 | 1.234
323.15 K | 779.5 | 1.1

CC(C)O [propan-2-ol] + C[S+](C)[O-]
[2], x2 = 0
Settings | mass density [kg/m3] | viscosity [mPa·s]
303.15 K | 776.4 | 1.792
308.15 K | 772.6 | 1.553
313.15 K | 768.6 | 1.355
318.15 K | 763.9 | 1.182
323.15 K | 758.8 | 1.041
